From US4692443A, “3-bicyclicpyridinium-methyl cephalosporins” (Eli Lilly and Company, priority 1984, dated 1987)
Converted amounts (≈) assume the structure as drawn. Read-outs that look alike come from different tables or passages of the source.

How the values were obtained:
Assay type in all cases: cell-based
[1] = tested on: Staph. epi EPI1; assay: standard in vitro agar dilution assay (MIC); conditions: Staph. epi strain EPI1
[2] = tested on: H. influ. 76; assay: standard in vitro agar dilution assay (MIC); conditions: H. influ. strain 76; read-out: Agar Dilution MIC
[3] = tested on: Klebsiella X26; assay: standard in vitro agar dilution assay (MIC); conditions: Klebsiella strain X26; read-out: Agar Dilution MIC
[4] = tested on: Staph. epi 222; assay: standard in vitro agar dilution assay (MIC); conditions: Staph. epi strain 222
[5] = tested on: E. coli N10; assay: standard in vitro agar dilution assay (MIC); conditions: Escherichia coli
[6] = tested on: Staph. aureus S13E; assay: microbe, parasite or virus in culture; conditions: Staphylococcus aureus, read-out: Agar Dilution MIC
[7] = tested on: Pseudomonas X528; assay: standard in vitro agar dilution assay (MIC); conditions: Pseudomonas strain X528
Excerpt: The antibacterial activity of several representative compounds of the invention has been evaluated in standard in vitro agar dilution assays. The following Table presents typical minimum inhibitory concentrations (MIC's) in μg /ml for exemplary compounds when evaluated against typical Gram + and Gram - microorganism.

[8] = tested on: Strep. PN PARK; assay: standard in vitro agar dilution assay (MIC); conditions: Strep. PN strain PARK
[9] = tested on: Strep. D X66; assay: standard in vitro agar dilution assay (MIC); conditions: Strep. D strain X66
[10] = tested on: H. influ. C.L.; assay: standard in vitro agar dilution assay (MIC); conditions: H. influ. strain C.L.; read-out: Agar Dilution MIC
[11] = tested on: Klebsiella KAE; assay: standard in vitro agar dilution assay (MIC); conditions: read-out: Agar Dilution MIC
[12] = tested on: Pseudomonas X239; assay: standard in vitro agar dilution assay (MIC); conditions: Pseudomonas strain X239
[13] = tested on: E. coli EC14; assay: standard in vitro agar dilution assay (MIC); conditions: Escherichia coli; E. coli strain EC14; read-out: Agar Dilution MIC
[14] = tested on: Klebsiella X68; assay: standard in vitro agar dilution assay (MIC); conditions: Klebsiella strain X68; read-out: Agar Dilution MIC
[15] = tested on: Strep. D 9960; assay: standard in vitro agar dilution assay (MIC); conditions: Strep. D strain 9960
[16] = tested on: Enterobacter aerogenes C32; assay: standard in vitro agar dilution assay (MIC); conditions: Klebsiella aerogenes
[17] = tested on: Strep. A C203; assay: standard in vitro agar dilution assay (MIC); conditions: Strep. A strain C203
[18] = tested on: Staph. aureus X1.1; assay: standard in vitro agar dilution assay (MIC); conditions: Staphylococcus aureus; Staph. aureus strain X1.1; read-out: Agar Dilution MIC
[19] = tested on: Staph. aureus X400; assay: standard in vitro agar dilution assay (MIC); conditions: Staphylococcus aureus; Staph. aureus strain X400
[20] = tested on: E. coli TEM; assay: standard in vitro agar dilution assay (MIC); conditions: Escherichia coli; E. coli strain TEM; read-out: Agar Dilution MIC
[21] = tested on: Staph. aureus V41; assay: standard in vitro agar dilution assay (MIC); conditions: Staphylococcus aureus
[22] = tested on: Salmonella X514; assay: standard in vitro agar dilution assay (MIC); conditions: Salmonella strain X514; read-out: Agar Dilution MIC
[23] = tested on: Serratia X99; assay: standard in vitro agar dilution assay (MIC); conditions: Serratia strain X99; read-out: Agar Dilution MIC
[24] = E. coli strain N10, read-out: Agar Dilution MIC
[25] = Enterobacter aerogenes strain C32, read-out: Agar Dilution MIC
[26] = Staph. aureus strain V41, read-out: Agar Dilution MIC

Q: With `CO/N=C(\C(=O)NC1C(=O)N2C(C(=O)[O-])=C(C[n+]3ccc4sc(C)nc4c3)CSC12)c1csc(N)n1` (stereo not shown) [Example 13] as the compound, how does the MIC [1] read?
A: 2 mg/L (≈ 3.67 µM)

Q: What about the MIC [2] of the same compound?
A: 0.03 mg/L (≈ 0.055 µM)

Q: What about the MIC [3] of the same compound?
A: 0.015 mg/L (≈ 0.0275 µM)

Q: What about the MIC [4] of the same compound?
A: 1 mg/L (≈ 1.83 µM)

Q: What about the MIC [5, 24] of the same compound?
A: 0.03 mg/L (≈ 0.055 µM)

Q: What about the MIC [6] of the same compound?
A: 8 mg/L (≈ 14.7 µM)

Q: And the MIC [7]?
A: 2 mg/L (≈ 3.67 µM)

Q: And the MIC [8]?
A: < 0.008 mg/L

Q: What about the MIC [9] of the same compound?
A: > 128 mg/L

Q: What about the MIC [10] of the same compound?
A: 0.03 mg/L (≈ 0.055 µM)

Q: What about the MIC ([11]; Klebsiella strain KAE) of the same compound?
A: 2 mg/L (≈ 3.67 µM)

Q: What about the MIC [12] of the same compound?
A: 8 mg/L (≈ 14.7 µM)

Q: What about the MIC [13] of the same compound?
A: 0.015 mg/L (≈ 0.0275 µM)

Q: What about the MIC [14] of the same compound?
A: 0.03 mg/L (≈ 0.055 µM)

Q: What about the MIC [15] of the same compound?
A: 8 mg/L (≈ 14.7 µM)

Q: What about the MIC [16, 25] of the same compound?
A: 0.03 mg/L (≈ 0.055 µM)

Q: And the MIC [17]?
A: 0.015 mg/L (≈ 0.0275 µM)

Q: And the MIC [18]?
A: 1 mg/L (≈ 1.83 µM)

Q: And the MIC [19]?
A: 32 mg/L (≈ 58.6 µM)

Q: And the MIC [20]?
A: 0.015 mg/L (≈ 0.0275 µM)

Q: And the MIC [21, 26]?
A: 8 mg/L (≈ 14.7 µM)

Q: How did the MIC [1] turn out when `CO/N=C(\C(=O)NC1C(=O)N2C(C(=O)[O-])=C(C[n+]3ccc4[nH]c(C)nc4c3)CSC12)c1csc(N)n1` (stereo not drawn) [Example 5, syn-7-[2-(2-aminothiazol-4-yl)-2-methoxyiminoacetamido]-3-(2-methyl-1H-imidazolo[4,5-c]pyridinium-5-ylmethyl)-3-cephem-4-carboxylate] was run?
A: 4 mg/L (≈ 7.57 µM)

Q: And the MIC [2]?
A: 0.015 mg/L (≈ 0.0284 µM)

Q: And the MIC [3]?
A: < 0.008 mg/L

Q: And the MIC [4]?
A: 1 mg/L (≈ 1.89 µM)

Q: What about the MIC [5, 24] of the same compound?
A: 0.03 mg/L (≈ 0.0568 µM)

Q: What about the MIC [6] of the same compound?
A: 8 mg/L (≈ 15.1 µM)

Q: What about the MIC [22] of the same compound?
A: < 0.008 mg/L

Q: And the MIC [23]?
A: 0.03 mg/L (≈ 0.0568 µM)

Q: What about the MIC [7] of the same compound?
A: 2 mg/L (≈ 3.78 µM)

Q: And the MIC [8]?
A: < 0.008 mg/L

Q: And the MIC [9]?
A: > 128 mg/L

Q: And the MIC [10]?
A: 0.015 mg/L (≈ 0.0284 µM)

Q: And the MIC ([11]; Klebsiella strain KAE)?
A: 2 mg/L (≈ 3.78 µM)

Q: What about the MIC [12] of the same compound?
A: 2 mg/L (≈ 3.78 µM)

Q: And the MIC [13]?
A: < 0.008 mg/L

Q: What about the MIC [14] of the same compound?
A: 0.015 mg/L (≈ 0.0284 µM)

Q: What about the MIC [15] of the same compound?
A: 8 mg/L (≈ 15.1 µM)

Q: And the MIC [16, 25]?
A: 0.03 mg/L (≈ 0.0568 µM)

Q: And the MIC [17]?
A: < 0.008 mg/L

Q: And the MIC [18]?
A: 2 mg/L (≈ 3.78 µM)

Q: And the MIC [19]?
A: 32 mg/L (≈ 60.5 µM)

Q: What about the MIC [20] of the same compound?
A: < 0.008 mg/L

Q: And the MIC [21, 26]?
A: 8 mg/L (≈ 15.1 µM)

Q: Which results are given for `CC(C)(O/N=C(\C(=O)N[C@@H]1C(=O)N2C(C(=O)[O-])=C(C[n+]3ccccc3)CS[C@H]12)c1csc(N)n1)C(=O)O` [Ceftazidime, ceftazidime, reference compound]?
A: MIC [1]: 16 mg/L (≈ 29.3 µM); MIC [4]: 16 mg/L (≈ 29.3 µM); MIC ([5]; N10, read-out: Agar Dilution MIC): 0.25 mg/L (≈ 0.457 µM); MIC [6]: 32 mg/L (≈ 58.5 µM); MIC [7]: 2 mg/L (≈ 3.66 µM); MIC [9]: > 128 mg/L; MIC ([11]; Klebsiella): 0.5 mg/L (≈ 0.915 µM); MIC [12]: 2 mg/L (≈ 3.66 µM); MIC [15]: 16 mg/L (≈ 29.3 µM); MIC ([16]; C32, read-out: Agar Dilution MIC): 0.25 mg/L (≈ 0.457 µM); MIC [18]: 8 mg/L (≈ 14.6 µM); MIC [19]: 128 mg/L (≈ 234 µM); MIC ([21]; V41, read-out: Agar Dilution MIC): 32 mg/L (≈ 58.5 µM)

Q: Which MIC [1] does the source give for `CO/N=C(\C(=O)NC1C(=O)N2C(C(=O)[O-])=C(C[n+]3ccc4ncn(C)c4c3)CSC12)c1csc(N)n1` (stereo not drawn) [Example 3, syn-7-[2-(2-Aminothiazol-4-yl)-2-methoxyiminoacetamido]-3-(3-methyl-3H-imidazolo[4,5-c]pyridinium-5-ylmethyl)-3-cephem-4-carboxylate] here?
A: 2 mg/L (≈ 3.78 µM)

Q: And the MIC [3]?
A: < 0.008 mg/L

Q: What about the MIC [4] of the same compound?
A: 1 mg/L (≈ 1.89 µM)

Q: And the MIC [6]?
A: 4 mg/L (≈ 7.57 µM)

Q: What about the MIC [22] of the same compound?
A: < 0.008 mg/L

Q: And the MIC [7]?
A: 1 mg/L (≈ 1.89 µM)

Q: And the MIC [8]?
A: < 0.008 mg/L

Q: What about the MIC [9] of the same compound?
A: > 128 mg/L

Q: And the MIC ([11]; Klebsiella strain KAE)?
A: 4 mg/L (≈ 7.57 µM)

Q: And the MIC [12]?
A: 2 mg/L (≈ 3.78 µM)

Q: What about the MIC [13] of the same compound?
A: < 0.008 mg/L

Q: What about the MIC [14] of the same compound?
A: 0.03 mg/L (≈ 0.0568 µM)

Q: And the MIC [15]?
A: 4 mg/L (≈ 7.57 µM)

Q: What about the MIC [17] of the same compound?
A: < 0.008 mg/L

Q: What about the MIC [18] of the same compound?
A: 1 mg/L (≈ 1.89 µM)

Q: What about the MIC [19] of the same compound?
A: 64 mg/L (≈ 121 µM)

Q: What about the MIC [20] of the same compound?
A: < 0.008 mg/L

Q: What about the MIC [21, 26] of the same compound?
A: 4 mg/L (≈ 7.57 µM)

Q: Which results are given for `CCc1nc2c[n+](CC3=C(C(=O)[O-])N4C(=O)C(NC(=O)/C(=N\OC)c5csc(N)n5)C4SC3)ccc2s1` (stereo not drawn) [Example 14, syn-7-[2-(2-aminothiazol-4-yl)-2-methoxyiminoacetamido]-3-(2-ethylthiazolo[4,5-c]pyridinium-5-ylmethyl)-3-cephem-4-carboxylate]?
A: MIC [1]: 2 mg/L (≈ 3.57 µM); MIC [2]: 0.015 mg/L (≈ 0.0268 µM); MIC [3]: < 0.008 mg/L; MIC [4]: 1 mg/L (≈ 1.79 µM); MIC [5, 24]: 0.03 mg/L (≈ 0.0536 µM); MIC [6]: 4 mg/L (≈ 7.15 µM); MIC [7]: 4 mg/L (≈ 7.15 µM); MIC [8]: < 0.008 mg/L; MIC [9]: > 128 mg/L; MIC ([11]; Klebsiella strain KAE): 2 mg/L (≈ 3.57 µM); MIC [12]: 4 mg/L (≈ 7.15 µM); MIC [13]: 0.015 mg/L (≈ 0.0268 µM); MIC [14]: 0.03 mg/L (≈ 0.0536 µM); MIC [15]: 4 mg/L (≈ 7.15 µM); MIC [17]: < 0.008 mg/L; MIC [18]: 1 mg/L (≈ 1.79 µM); MIC [19]: 32 mg/L (≈ 57.2 µM); MIC [20]: 0.015 mg/L (≈ 0.0268 µM); MIC [21, 26]: 4 mg/L (≈ 7.15 µM)
